Laboratory results taken from patent US20190359653A1, “SELECTIVE PEPTIDE INHIBITORS OF FRIZZLED” (Genentech, Inc., priority 2016, published 2019).
Where two headings read alike, the source gives them in different places.

Assays:
FZD8 CRD-Fc = biological target: T1, FZD8 CRD-Fc (Homo sapiens, UniProt Q9H461); assay: spot phage ELISA against FZD8 CRD-Fc (off-target); type: binding; conditions: spot phage ELISA signal against FZD 8 CRD over ELISA signal against BSA; Tables 3 and 4
T1 construct: hFZD8 CRD-Fc (cat no. 6129-FZ); purchased R&D systems 6129-FZ
T1 sequence (Q9H461 30-151 limits assumed): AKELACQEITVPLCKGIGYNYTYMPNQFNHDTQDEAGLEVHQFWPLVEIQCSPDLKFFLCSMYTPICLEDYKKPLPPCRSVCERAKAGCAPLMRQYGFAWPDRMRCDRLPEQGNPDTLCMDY
Description: (§1) Phage pools of linear peptide libraries (Stanger, K. et al. Allosteric peptides bind a caspase zymogen and mediate caspase tetramerization. Nat Chem Biol 8, 655-660 (2012)) were cycled through rounds of binding selections with hFZD7 CRD-Fc following standard protocols (Tonikian et al. (2007) Nat Protoc 2, 1368-1386). Herceptin (10 μM) was included in sorting solution to block potential Fc binders during all rounds of sorting. After four rounds of binding selection, individual phage clones were analyzed in a high-throughput spot phage ELISA using plate-immobilized FZD7 CRD-Fc as target or off-target for specificity test (hFZD8 CRD-Fc and Herceptin). To measure off-target affinity, duplicate phage particle were assayed against BSA to measure non-specific binding. Clones with a phage-binding signal >0.5 and signal-to-noise ratio >10 were considered to be positive clones and were subjected to DNA sequence analysis. General data handling was done using Microsoft Excel 2010 unless otherwise noted.
(§2) In order to investigate the role of FZD7 in intestinal stem cell function, experiments were performed to identify ligands that selectively bind FZD7 CRD. A naïve linear peptide library (4-16 amino acids in length) and a cyclic peptide library were screened via phage display against FZD7 CRD-Fc. Peptides found to bind FZD7 CRD-Fc were then screened via spot phage ELISA against FZD7 CRD-Fc, FZD8 CRD-Fc, and Herceptin to identify candidates that bind FZD7 CRD but not FZD8 CRD or herceptin. The amino acid sequences of candidate FZD7 CRD-binding linear peptides are shown in Table 3 below, and the amino acid sequences of candidate FZD7 CRD-binding cyclic peptides are shown in Table 4.

FZD7 CRD-Fc = biological target: T2, FZD7 CRD-Fc (Homo sapiens, UniProt O75084); assay: spot phage ELISA against FZD7 CRD-Fc; type: binding; conditions: for SIGNAL: NOISE RATIO FZD7 CRD: spot phage ELISA signal against FZD7 CRD over ELISA signal against BSA, Tables 3 and 4; for FZD7 CRD-Fc phage-binding signal: signal minus noise (BSA); for FZD7 CRD-Fc phage-binding signal / FZD7 CRD-Fc S/N: shotgun scanning variants of Fz7-21, Table 5; for FZD7 CRD-Fc S/N: signal to noise ratio
T2 construct: hFZD7 CRD-Fc (cat no. 6178-FZ); purchased R&D systems 6178-FZ
Description: as §1, §2
(§3) Briefly, sixty Fz7-21-derived peptides (see Table 5), each containing at least one random alanine and/or valine/and/or aspartic acid and/or serine substitution, were generated and screened via spot phage ELISA (i.e., as described above) against FZD7 CRD-Fc and Herceptin.

Herceptin = assay: spot phage ELISA against Herceptin (off-target); type: binding; conditions: for SIGNAL: NOISE RATIO HERCEPTIN: spot phage ELISA signal against Herceptin over ELISA signal against BSA, Tables 3 and 4; for HERCEPTIN S/W: signal minus noise (BSA); for HERCEPTIN S/W / HERCEPTIN S/N: Table 5; for HERCEPTIN S/N: signal to noise ratio
Description: as §1, §2, §3

[1] = system: Rnf43^−/− and Znf3^−/− intestinal neoplasia in mice; conditions: Koo et al. (2015); cited from earlier work
[2] = system: Wnt3a-mediated stabilization of β-catenin in mouse L cells; assay: in-cell western of β-catenin protein in L cells treated with Wnt3a; type: cell-based
Description: DMSO controls were performed in parallel. Following treatment, the L-cells were fixed, permeabilized, probed with fluorescently labeled anti-β-catenin antibodies, and observed via in-cell western assay (i.e., as described in Hannoush, R. N. (2008) PLoS One 3, e3498) to assess β-catenin protein levels. The values in Table 7 are averages of at least 3 independent replicates, ±standard deviation.

[3] = system: Wnt3a-mediated β-catenin signaling in HEK293-TB cells; type: cell-based; conditions: for HEK293S-TB % Remaining Activity: measured at 100 μM peptide; for IC50 compared with dFz7-21: text to Table 17
[4] = β-catenin by immunofluorescence, Wnt3a 2.5 nM, 5 hours, mean ± standard deviation
[5] = […], mWnt3a 50 ng/mL, 6 hours, mean ± standard deviation, read-out: HEK293S-TB IC50

For 5 (PCSVICLPDWSSLLFI) [compound 5], the “SIGNAL: NOISE RATIO FZD8 CRD” value (FZD8 CRD-Fc) was 1.5, the “SIGNAL: NOISE RATIO FZD7 CRD” value (FZD7 CRD-Fc) was 22.7 and the “SIGNAL: NOISE RATIO HERCEPTIN” value (Herceptin) was 1.0.
In the case of 15 (FWMQLQDGFAIWFP) [compound 15], the “SIGNAL: NOISE RATIO FZD8 CRD” value (FZD8 CRD-Fc) is reported as 2.9 and the “SIGNAL: NOISE RATIO HERCEPTIN” value (Herceptin) is reported as 1.7.
With 16 (PCSVICLPDWSSLLFI) [compound 16] the “SIGNAL: NOISE RATIO FZD8 CRD” value (FZD8 CRD-Fc) was 1.1, the “SIGNAL: NOISE RATIO FZD7 CRD” value (FZD7 CRD-Fc) was 5.0 and the “SIGNAL: NOISE RATIO HERCEPTIN” value (Herceptin) was 1.1.
With 40 (AASDDLEFWCHVMY) [compound 40] the “FZD7 CRD-Fc phage-binding signal” value (FZD7 CRD-Fc) was 3.2, the “FZD7 CRD-Fc S/N” value (FZD7 CRD-Fc) was 60.5 and the “HERCEPTIN S/W” value (Herceptin) was 0.0. For the same compound, the “HERCEPTIN S/N” value (Herceptin) was 1.4.
In the case of 41 (AASDDLEFWCHVMY) [compound 41], the “FZD7 CRD-Fc phage-binding signal” value (FZD7 CRD-Fc) is reported as 3.0, the “FZD7 CRD-Fc S/N” value (FZD7 CRD-Fc) is reported as 59.6 and the “HERCEPTIN S/W” value (Herceptin) is reported as 0.0. The “HERCEPTIN S/N” value (Herceptin) was 1.3.
With 87 (AAADDVASWCHVMY) [compound 87] the “HERCEPTIN S/W” value (Herceptin) was 0.0 and the “HERCEPTIN S/N” value (Herceptin) was 1.3.
In the case of 88 (VAADDLAFWCDVMY) [compound 88], the “HERCEPTIN S/W” value (Herceptin) is reported as 0.0 and the “HERCEPTIN S/N” value (Herceptin) is reported as 1.2.
With 89 (APADDLEFWCHAMY) [compound 89] the “HERCEPTIN S/W” value (Herceptin) was 0.0 and the “HERCEPTIN S/N” value (Herceptin) was 1.4.
In the case of 90 (APADDLAFWCDVMY) [compound 90], the “HERCEPTIN S/W” value (Herceptin) is reported as 0.0 and the “HERCEPTIN S/N” value (Herceptin) is reported as 0.9.
With 91 (APSDDLAFWCDVMY) [compound 91] the “HERCEPTIN S/W” value (Herceptin) was 0.0 and the “HERCEPTIN S/N” value (Herceptin) was 0.7.
For 92 (LPADDLAFWCDVMY) [compound 92], the “HERCEPTIN S/W” value (Herceptin) was 0.0 and the “HERCEPTIN S/N” value (Herceptin) was 0.7.
With 93 (AAADDLAFWCDVMY) [compound 93] the “HERCEPTIN S/W” value (Herceptin) was -0.2 and the “HERCEPTIN S/N” value (Herceptin) was 0.4.
For 94 (LPADDLEFWCHVMY) [compound 94], the “FZD7 CRD-Fc phage-binding signal” value (FZD7 CRD-Fc) was 0.1, the “FZD7 CRD-Fc S/N” value (FZD7 CRD-Fc) was 2.8 and the “HERCEPTIN S/W” value (Herceptin) was 0.0. The “HERCEPTIN S/N” value (Herceptin) was 1.2.
For 95 (VPSDDLEFWCAVMY) [compound 95], the “HERCEPTIN S/W” value (Herceptin) was 0.0 and the “HERCEPTIN S/N” value (Herceptin) was 1.2.
In the case of 96 (APADDLESWCHVMY) [compound 96], the “HERCEPTIN S/W” value (Herceptin) is reported as 0.1 and the “HERCEPTIN S/N” value (Herceptin) is reported as 2.1.
For 97 (APSDDLAFWCHVVY) [compound 97], the “HERCEPTIN S/W” value (Herceptin) was 0.1 and the “HERCEPTIN S/N” value (Herceptin) was 2.1.
In the case of 98 (AAADDLAAWCHVVY) [compound 98], the “HERCEPTIN S/W” value (Herceptin) is reported as 0.1 and the “HERCEPTIN S/N” value (Herceptin) is reported as 2.2.
For Cc1cc(-c2ccc(CC(=O)Nc3ccc(-c4cccnc4)cc3)cc2)ccn1 [C59], the “adverse effects on adjacent intestinal crypts” value [1] is listed as “no significant adverse effects” and the “growth of intestinal neoplasia” value [1] is listed as “prevents the growth”.
In the case of FDFCSVMPQFIYCPGD [Fz7-20], the “L CELLS % Remaining Activity” value ([2]; measured at 100 μM peptide) is reported as 23.68 ± 4.40%, the IC50 [2, 4] is reported as 15.2 ± 10.8 µM and the IC50 [3, 5] is reported as 20.8 ± 1.61 µM. For the same compound, the “HEK293S-TB % Remaining Activity” value ([3]; mean ± standard deviation) was 9.78 ± 0.53% and the “SIGNAL: NOISE RATIO HERCEPTIN” value (Herceptin) was 1.14.
With ISLIEAMIALDRVF [Fz7-06] the “L CELLS % Remaining Activity” value ([2]; measured at 100 μM peptide) was 174.95%, the “L CELLS IC50 (μM)” value [2, 4] was “n. i” and the IC50 [3, 5] was 10.5 ± 0.56 µM. For the same compound, the “HEK293S-TB % Remaining Activity” value ([3]; mean ± standard deviation) was 4.70 ± 2.07% and the “SIGNAL: NOISE RATIO HERCEPTIN” value (Herceptin) was 1.1.
With IWFKGRFVEFSSLV [Fz7-17] the “L CELLS % Remaining Activity” value ([2]; measured at 100 μM peptide) was 38.20 ± 0.06%, the IC50 [2, 4] was roughly 35 µM and the IC50 [3, 5] was 34.77 ± 0.34 µM. The “HEK293S-TB % Remaining Activity” value ([3]; mean ± standard deviation) was 4.59 ± 1.30% and the “SIGNAL: NOISE RATIO HERCEPTIN” value (Herceptin) was 1.1.
In the case of LPSDNLEFWCHVMY [Fz7-21N], the “L CELLS % Remaining Activity” value ([2]; measured at 11.11 μM of peptide) is reported as 59.77^G ± 6.12%, the “Wnt3a-mediated stabilization of β-catenin” value ([2]; mouse L cells) is reported as “blocked” and the IC50 [2, 4] is reported as 0.18 ± 0.12 µM. The “HEK293S-TB % Remaining Activity” value ([3]; mean ± standard deviation) was 5.51 ± 0.13% and the IC50 ([3]; read-out: IC50, Wnt3a-stimulated β-catenin signaling) was 0.1 µM.
For SDDLEFWCHVMY [dFz7-21-Δ2], the “effect of N-terminal truncation on dFz7-21 activity” value ([3]; lacking the 2 N-terminal residues) was “did not interfere” and the “IC50 compared with dFz7-21” value [3] was “comparable to that of dFz7-21”.
With SDDXEFWCHVMY [dFz7-21Δ2.L6Hof] the “IC50 compared with dFz7-21” value [3] was “comparable to that of dFz7-21”.
With YEHLHDLMDLIRPW [Fz7-07] the “L CELLS % Remaining Activity” value ([2]; measured at 100 μM peptide) was 67.20 ± 10.22%, the IC50 [2, 4] was greater than 100 µM and the IC50 [3, 5] was greater than 100 µM. The “HEK293S-TB % Remaining Activity” value ([3]; mean ± standard deviation) was 46.04 ± 6.94% and the “SIGNAL: NOISE RATIO HERCEPTIN” value (Herceptin) was 1.2.
